Measurements taken from patent publication US20040038894A1, “Compounds for modulating cell negative regulations and biological applications thereof” (INSTITUT NATIONAL DE LA SANTE ET DE LA RECHERCHE MEDICALE …, priority 1996, published 2004).
Where a SMILES comes first, the peptide text is derived from it. Where no end group is shown, it is not given here. The star is where a group is joined. Biotin = O=C1N[C@H]2[C@H](CS[C@H]2CCCCC(=O)*)N1

What was measured:
[1] = biological target: T1, GST-SHP-1.SH2(N) (Mus musculus, UniProt P29351); test: Surface plasmon resonance (BIAcore), SHP-1 N-SH2 domain; format: binding, murine; conditions: for koff / kon: phosphorylated peptide immobilized, 5 μl/min
T1 construct: recombinant fusion proteins corresponding to the isolated N- and C-SH2 domains of SHP-1; made in house; host or cells: E. coli DH5α
T1 sequence (P29351 4-100 limits assumed): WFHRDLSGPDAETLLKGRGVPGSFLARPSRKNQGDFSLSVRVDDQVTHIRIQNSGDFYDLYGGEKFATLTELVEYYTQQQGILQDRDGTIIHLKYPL
Method: (§1) Fusion proteins and surface plasmon resonance analysis. Surface plasmon resonance (SPR) measurements were performed on a BIAcore™ (Pharmacia). The GST-SHP-1.SH2(NC), GST-SHP-1.SH2(N), GST-SHP-1.SH2(C), GST-SHIP.SH2 fusion proteins generated from the murine phosphatase cDNA, were purified from DH5α lysates. Briefly, overnight culture at 37° C. in LB medium containing 50 μg/ml ampicillin was diluted 1/10 in fresh medium, and incubated until the absorbance at 600 nm reaches 1-2. At that point, IPTG was added (1 mM), and incubation continued for an additional 4 hours at 37° C. After centrifugation, bacteria pellet was resuspended in TENGN buffer (50 mM Tris pH 8, 1 mM EDTA, 10% glycerol, 1% NP40, 1 mM DTT, 1 mM PMSF, 10 μg/ml aprotinin and 10 μg/ml leupeptine). Bacteria were lysed by sonication. After centrifugation, supernatant was incubated with Glutathione-Sepharose 4B beads (Pharmacia) overnight at 4° C. with slow shaking. After 3 washes with 50 mM Tris pH 8, elution of the fusion protein was carried out using 50 mM Tris pH 8 supplemented with 10 mM reduced glutathione. Before their use in BIAcore™ experiments, fusion proteins were dialyzed in HBS buffer (10 mM HEPES, 150 mM NaCl, 3.4 mM EDTA). Protein purity was assessed by 12.5% SDS-PAGE, and Coomassie blue staining. The running buffer used in all BIAcore™ experiments consisted of HBS buffer supplemented with 0.05% surfactant P20. For preparation of microchips coated with phosphorylated peptides, immunopure streptavidine (Sigma) was first immobilized onto CMS-sensorchip. Then, biotinylated peptides were injected, and their binding to streptavidine-coated microchips was assessed using anti-phosphotyrosine 4G10 mAb (UHI).
(§2) The measurement of phosphorylated p58.2 peptide binding to GST-SHP-1.SH2(N) and GST-SHP-1.SH2(C) fusion proteins was at a constant 5 μl/min flow rate. In the representative experiment of which results are reported in the above table I, 130 and 160 RU of respectively p58.2.1 and p58.2.2 peptides were immobilized on microchips. The regeneration was performed using HBS buffer supplemented with 0.03% SDS. Results are expressed as corrected resonance units (CRU) corresponding to the raw RU values subtracted from background RU value due to the injection medium. […] koff and kon were calculated from three independent measurements using the BLAevaluation 2.0 software. Kd was calculated from koff/kon.

[2] = biological target: T2, GST-SHP-1.SH2(C) (Mus musculus, UniProt P29351); test: Surface plasmon resonance (BIAcore), SHP-1 C-SH2 domain; format: binding, murine; conditions: phosphorylated peptide immobilized; 5 μl/min
T2 construct: recombinant fusion proteins corresponding to the isolated N- and C-SH2 domains of SHP-1; made in house; host or cells: E. coli DH5α
T2 sequence (P29351 110-213 limits assumed): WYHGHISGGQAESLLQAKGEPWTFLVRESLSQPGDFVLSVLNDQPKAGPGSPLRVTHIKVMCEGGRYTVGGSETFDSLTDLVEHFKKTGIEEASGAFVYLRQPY
Method: as §1, §2

[3] = biological target: T3, SHP-2 (Rattus norvegicus, UniProt P41499); test: Cell lysate adsorption to peptides, anti-SHP-2 immunoblot; format: binding; conditions: RBL-2H3 lysates, peptide on streptavidin beads
T3 construct: RBL-2H3 cells were lysed in NP-40 lysis buffer; endogenous in cells; host or cells: RBL-2H3
T3 sequence (P41499 1-593): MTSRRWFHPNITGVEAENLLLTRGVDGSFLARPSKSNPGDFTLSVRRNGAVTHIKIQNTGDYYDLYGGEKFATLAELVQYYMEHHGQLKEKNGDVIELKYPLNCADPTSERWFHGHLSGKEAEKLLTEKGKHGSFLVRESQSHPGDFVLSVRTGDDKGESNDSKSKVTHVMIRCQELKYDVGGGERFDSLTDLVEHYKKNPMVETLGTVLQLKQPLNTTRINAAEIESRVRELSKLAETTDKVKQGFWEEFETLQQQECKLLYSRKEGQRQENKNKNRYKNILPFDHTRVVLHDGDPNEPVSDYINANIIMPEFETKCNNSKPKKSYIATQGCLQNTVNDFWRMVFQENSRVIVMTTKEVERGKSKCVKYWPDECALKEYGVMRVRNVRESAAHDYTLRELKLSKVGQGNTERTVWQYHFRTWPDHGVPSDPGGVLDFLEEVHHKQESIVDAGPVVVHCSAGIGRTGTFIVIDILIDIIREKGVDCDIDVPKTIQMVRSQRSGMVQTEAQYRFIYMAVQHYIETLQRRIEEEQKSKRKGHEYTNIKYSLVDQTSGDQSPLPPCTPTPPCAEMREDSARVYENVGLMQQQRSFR
Method: (§3) Assay for cell lysate adsorption to peptides. RBL-2H3 cells were lysed in NP-40 lysis buffer (1% NP-40, 10 mM Tris-HCl, 150 mM NaCl, 1 mM EDTA, 1 mM PMSF, 10 mM iodoacetamide, 10 mM NaF, 10 mM Na pyrophosphate, 0.4 mM Na vanadate, 10 μg/ml leupeptine, 10 μg/ml aprotinine). Samples were either used directly (whole cell lysates: WCL), or subjected to affinity purification using peptides bound to beads. Biotinylated peptides (5 μg) were coupled to 50 μl streptavidin-agarose bead slurry (Sigma) for 1 hour at 4° C., prior to bead saturation with D-biotin (1 mg/ml) for 1 hour at 4° C. After 3 washes in lysis buffer, samples were separated on SDS-PAGE and transferred to nitrocellulose.
(§4) RBL-2H3 and ^35S-labeled IIA.1.6 cells were lysed in NP-40 lysis buffer (1% NP-40, 10 mM Tris-HCl, 150 mM NaCl, 1 mM EDTA, 1 mM PMSF, 10 mM iodoacetamide, 10 mM NaF, 10 mM Na pyrophosphate, 0.4 mM Na vanadate, 10 μg/ml leupeptin, 10 μg/ml aprotinin). Samples were either used directly (whole cell lysates: WCL), or subjected to affinity purification using peptides bound to beads. Biotinylated peptides (5 μg) were coupled to 50 μl streptavidin-agarose slurry beads for 1 hour at 4° C., prior to bead saturation with D-biotin (1 mg/ml) for 1 hour at 4° C. After 3 washes in lysis buffer, samples were fractionated on 8% SDS-polyacrylamide gel electrophoresis (SDS-PAGE) under reducing condition and transferred to nitrocellulose.
(§5) Results are illustrated by FIG. 15 showing the in vitro interaction between NKG2A ITIMs and SHP-1, SHP-2 and SHIP phosphatases. In FIG. 15, RBL-2H3 cell lysates (15A) or ^35S-labeled ILA.1.6 cell lysates (15B) were absorbed with indicated biotinylated peptides coupled to streptavidin-beads. Affinity-bound proteins (30×10^6 cells/sample) or whole cell lysates (WCL, 5×10^6 cells/sample) were resolved on 8% SDS-PAGE under reducing conditions prior to autoradiography (15B), or immunoblotting using anti-SHIP antiserum, anti-SHP-2 mAb and anti-SHP-1 mAbs (15A).

[4] = biological target: T4, SHP-1 (Rattus norvegicus, UniProt P81718); test: Cell lysate adsorption to peptides, anti-SHP-1 immunoblot; format: binding; conditions: RBL-2H3 lysates, peptide on streptavidin beads
T4 construct: endogenous in cells; host or cells: RBL-2H3
T4 sequence (P81718 whole entry): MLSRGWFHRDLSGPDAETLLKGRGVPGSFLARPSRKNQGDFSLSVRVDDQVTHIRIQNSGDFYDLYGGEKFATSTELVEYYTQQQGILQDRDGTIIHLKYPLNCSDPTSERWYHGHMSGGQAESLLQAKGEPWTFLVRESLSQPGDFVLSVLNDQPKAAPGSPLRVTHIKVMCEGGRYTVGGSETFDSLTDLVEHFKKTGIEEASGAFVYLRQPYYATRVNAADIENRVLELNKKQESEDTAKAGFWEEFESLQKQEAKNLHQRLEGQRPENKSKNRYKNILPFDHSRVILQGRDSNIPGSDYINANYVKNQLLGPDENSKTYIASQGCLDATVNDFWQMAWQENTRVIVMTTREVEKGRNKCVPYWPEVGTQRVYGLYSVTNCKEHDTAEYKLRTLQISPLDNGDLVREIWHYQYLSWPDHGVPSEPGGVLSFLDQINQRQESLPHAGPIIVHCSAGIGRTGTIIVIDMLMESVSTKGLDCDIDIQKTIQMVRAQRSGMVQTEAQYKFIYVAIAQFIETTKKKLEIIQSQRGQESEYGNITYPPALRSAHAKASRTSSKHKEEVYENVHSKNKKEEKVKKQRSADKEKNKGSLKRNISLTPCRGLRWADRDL
Method: as §3, §4, §5

[5] = biological target: T5, SHIP (Rattus norvegicus, UniProt P97573); test: Cell lysate adsorption to peptides, anti-SHIP immunoblot; format: binding; conditions: RBL-2H3 lysates, peptide on streptavidin beads
T5 construct: RBL-2H3 cells were lysed in NP-40 lysis buffer; endogenous in cells; host or cells: RBL-2H3
T5 sequence (P97573 1-1190): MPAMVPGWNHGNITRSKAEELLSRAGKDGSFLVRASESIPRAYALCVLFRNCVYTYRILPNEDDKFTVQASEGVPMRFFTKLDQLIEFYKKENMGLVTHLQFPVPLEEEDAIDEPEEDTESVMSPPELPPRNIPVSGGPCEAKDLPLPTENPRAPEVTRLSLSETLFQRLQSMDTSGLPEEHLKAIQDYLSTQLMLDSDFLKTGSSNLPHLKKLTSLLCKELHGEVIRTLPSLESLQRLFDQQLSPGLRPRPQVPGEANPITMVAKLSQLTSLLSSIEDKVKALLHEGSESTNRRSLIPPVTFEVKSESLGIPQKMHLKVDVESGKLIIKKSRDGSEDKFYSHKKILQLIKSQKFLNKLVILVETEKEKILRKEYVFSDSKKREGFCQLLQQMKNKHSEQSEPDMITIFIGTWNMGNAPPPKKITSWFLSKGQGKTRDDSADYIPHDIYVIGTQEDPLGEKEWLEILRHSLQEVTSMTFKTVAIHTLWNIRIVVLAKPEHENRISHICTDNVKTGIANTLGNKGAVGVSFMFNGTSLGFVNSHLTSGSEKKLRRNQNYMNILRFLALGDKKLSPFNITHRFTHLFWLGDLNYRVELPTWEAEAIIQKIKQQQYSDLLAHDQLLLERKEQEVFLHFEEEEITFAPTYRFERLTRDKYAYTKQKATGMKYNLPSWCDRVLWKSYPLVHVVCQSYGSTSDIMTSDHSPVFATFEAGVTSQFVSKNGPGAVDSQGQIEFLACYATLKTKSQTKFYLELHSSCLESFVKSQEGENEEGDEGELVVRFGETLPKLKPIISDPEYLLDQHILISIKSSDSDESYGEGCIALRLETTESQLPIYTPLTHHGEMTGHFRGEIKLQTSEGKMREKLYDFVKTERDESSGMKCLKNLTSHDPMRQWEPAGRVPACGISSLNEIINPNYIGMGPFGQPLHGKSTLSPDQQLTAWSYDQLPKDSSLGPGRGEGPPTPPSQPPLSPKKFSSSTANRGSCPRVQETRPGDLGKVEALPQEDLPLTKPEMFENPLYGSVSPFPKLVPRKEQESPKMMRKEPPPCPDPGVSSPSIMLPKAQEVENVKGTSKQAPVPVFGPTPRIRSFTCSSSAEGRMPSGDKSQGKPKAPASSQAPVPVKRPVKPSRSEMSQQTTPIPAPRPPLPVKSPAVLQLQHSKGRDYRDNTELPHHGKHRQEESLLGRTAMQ
Method: as §3, §4, §5

Molecule | Kd [1] | koff [1] | kon [1] | koff [2] | kon [2] | binding of SHP-2 from cell lysates [3] | binding of SHP-1 from cell lysates [4] | binding of SHIP from cell lysates [5] | binding of SHIP from cell lysates ([5]; listed as FcγRIIB phosphorylated ITIM peptides)
CC(C)C[C@H](NC(=O)[C@H](CCC(N)=O)NC(=O)[C@H](C)NC(=O)[C@H](Cc1ccc(OP(=O)(O)O)cc1)NC(=O)[C@@H](NC(=O)[C@@H](NC(=O)[C@H](CCC(=O)O)NC(=O)[C@H](CCC(N)=O)NC(=O)[C@@H]1CCCN1C(=O)[C@H](CC(=O)O)NC(=O)[C@H](CCC(N)=O)NC(=O)[C@H](CCC(=O)O)NC(=O)[C@H](CC(=O)O)NC(=O)CCCC[C@@H]1SC[C@@H]2NC(=O)N[C@@H]21)C(C)C)[C@@H](C)O)C(=O)N[C@@H](CC(N)=O)C(=O)N[C@@H](Cc1c[nH]cn1)C(=O)O [p58.2.1, DEQDPQEVTY303AQLNH] (HELM PEPTIDE1{[O=C1N[C@H]2[C@H](CS[C@H]2CCCCC(=O)[*:2])N1].D.E.Q.D.P.Q.E.V.T.[O=C([C@H](Cc1ccc(OP(=O)(O)O)cc1)N[*:1])[*:2]].A.Q.L.N.H}$$$$V2.0) | 0.423 µM | 0.042 s⁻¹ | 100000 M⁻¹ s⁻¹ | 0.0007 s⁻¹ | 5000 M⁻¹ s⁻¹ |  |  |  | 
CC[C@H](C)[C@H](NC(=O)[C@H](CC(=O)O)NC(=O)[C@@H](NC(=O)[C@@H]1CCCN1C(=O)[C@@H]1CCCN1C(=O)[C@@H](NC(=O)[C@H](CCCCN)NC(=O)[C@@H]1CCCN1C(=O)[C@H](CCCNC(=N)N)NC(=O)[C@H](CCC(N)=O)NC(=O)[C@H](CO)NC(=O)[C@@H]1CCCN1C(=O)[C@H](CCCNC(=N)N)NC(=O)CCCC[C@@H]1SC[C@@H]2NC(=O)N[C@@H]21)[C@@H](C)O)[C@@H](C)O)C(=O)N[C@H](C(=O)N[C@H](C(=O)N[C@@H](Cc1ccc(OP(=O)(O)O)cc1)C(=O)N[C@H](C(=O)N[C@@H](CCC(=O)O)C(=O)N[C@@H](CC(C)C)C(=O)N1CCC[C@H]1C(=O)N[C@@H](CC(N)=O)C(=O)N[C@@H](C)C(=O)N[C@@H](CCC(=O)O)C(=O)N1CCC[C@H]1C(=O)O)[C@@H](C)O)C(C)C)[C@@H](C)CC [p58.2.2, RP SQ RPKTPPTDIIVY333TELPNAEP] (HELM PEPTIDE1{[O=C1N[C@H]2[C@H](CS[C@H]2CCCCC(=O)[*:2])N1].R.P.S.Q.R.P.K.T.P.P.T.D.I.I.V.[O=C([C@H](Cc1ccc(OP(=O)(O)O)cc1)N[*:1])[*:2]].T.E.L.P.N.A.E.P}$$$$V2.0) | 3.16 µM | 0.025 s⁻¹ | 8000 M⁻¹ s⁻¹ | 0.0003 s⁻¹ | 600 M⁻¹ s⁻¹ |  |  |  | 
DEQDPQEATY303AQLN (DEQDPQEATYAQLN) [p58.2.1-V301A, point mutant of KIR N-terminal ITIM peptide] |  |  |  |  |  | abolishes the binding | abolishes the binding |  | 
KTEAENTATY262SLLK (KTEAENTATYSLLK) [FcγRIIB 1-I260A, point mutant of FcγRIIB ITIM peptide] |  |  |  |  |  | abolishes the binding | abolishes the binding | not affected | 
KTEAENTITY262SLLK [FcγRIIB ITIM] (Biotin-KTEAENTITYSLLK) [murine FcγRIIB1/B2 ITIM peptide] |  |  |  |  |  | recruit | recruit | recruit | associate
KTEAENTITY262SLLK [nonphosphorylated peptides corresponding to FcγRIIB] |  |  |  |  |  | No association | No association | No association | 
